Measurements: article PMC12177571, “Glycosidase-activated prodrugs of a cytotoxic iron chelator for targeted cancer therapy” (RSC Medicinal Chemistry, 2025)

Experiments:
β-galactosidase [1] = target: T1, β-galactosidase (Escherichia coli, UniProt P00722); experiment: Enzymatic cleavage study (HPLC) with β-galactosidase; format: biochemical, e.coli; conditions: 100 μM prodrug in PBS, 2 units β-galactosidase, 37°C
T1 construct: purchased Roche; host or cells: E. coli overproducer
Experimental: To test the desired, selective enzymatic cleavage and further evaluate compound stability, solutions of each prodrug were prepared in phosphate-buffered saline (PBS), and either β-galactosidase or β-glucosidase were added. After incubation times of 24 h and 48 h, samples from each mixture were analyzed by HPLC to gain insight into the relative amounts of both the remaining prodrug and the liberated 1.
Fig. 3 HPLC traces after 48 h of enzyme incubation for the prodrugs of this study as indicated at their respective peaks. The identity of the employed enzyme is indicated on the left of the chromatogram and the identity of each observed compound is shown above the respective peak. Chromatograms are shown with an offset of 2 along the ordinate to facilitate comparison.
(§1) The three following enzymes were employed in this study:
(§2) (1) esterase from porcine liver sourced from Sigma Aldrich as dry powder with an activity of 229.4 units/mg protein as indicated by the supplier for the received lot; (2) β-glucosidase from almonds sourced from Sigma Aldrich as dry powder with an activity of 11.7 U/mg as indicated by the supplier for the received lot
(§3) (3) β-galactosidase from e.coli overproducer sourced from Roche as prepared aqueous solution with an activity of 1500 units/mL protein as indicated by the supplier for the […]
(§4) As indicated for each experiment below, the respective enzyme was dissolved in PBS buffer and diluted as appropriate to produce the desired concentration.
25 mM stock solutions in DMSO were prepared for 2a, 2b, 3a, and 3b. From these stock solutions, 4 µL was added to 1 mL of PBS buffer, respectively, in separate glass vials, achieving a final concentration of 100 µM. The vials were then assigned to one of three experimental groups: control, negative, and positive.
In the control group, no enzyme was introduced. The negative group received 2 units of esterase enzyme, while the positive group received 2 units of the target enzyme as indicated, either β-galactosidase or β-glucosidase. All vials were incubated in a 37°C water bath for 48 hours. Aliquots were extracted from each vial after 24 and 48 hours, respectively, and analyzed as described below.
The extracted aliquots were analyzed via high-performance liquid chromatography (HPLC) with ultraviolet (UV) detection at a wavelength of 254 nm. Chromatograms were plotted with an offset of 1 along the y-axis to allow clear intercomparison of the data across the […]

[2] = Stability in PBS without enzyme (HPLC control group); format: physicochemical; conditions: 100 μM in PBS, no enzyme, 37°C, up to 48 h
Experimental: Additional selectivity control experiments were conducted, in which either no enzyme or an “incorrect” enzyme such as an esterase was used (see Fig. S13–S24 in the ESI ^†).
as §1, §2, §3, §4
25 mM stock solutions in DMSO were prepared for 2a, 2b, 3a, and 3b. From these stock solutions, 4 µL was added to 1 mL of PBS buffer, respectively, in separate glass vials, achieving a final concentration of 100 µM. […]
In the control group, no enzyme was introduced. […] Aliquots were extracted from each vial after 24 and 48 hours, respectively, and analyzed as described below.
The extracted aliquots were analyzed via high-performance liquid chromatography (HPLC) with ultraviolet (UV) detection at a wavelength of 254 nm. […]

β-galactosidase [3] = target: T1, β-galactosidase; experiment: AIE fluorescence study of release of 1 with β-galactosidase; format: biochemical, e.coli; conditions: for Relative emission intensity at 480 nm: 20 μM in water; for Fluorescence emission / release of 1 (in words): water, three enzyme units of β-galactosidase, 0 h and 24 h
Experimental: (§5) The AIE fluorescence properties of 1 were used as a means of supporting the above conclusion. The emission of all glycosylated prodrugs is suppressed. Thus, solutions of each prodrug were prepared in water, and three enzyme units of β-galactosidase or β-glucosidase, as appropriate, were added to the prodrugs. Each mixture was then analysed by fluorescence spectroscopy after 24 h of incubation. […] This finding is consistent with a lack of enzymatic activation.
Fig. 4 Relative emission intensity at 480 nm (*for 3b at 420 nm) of evaluated compounds at 20 μM before and after incubation with 3 U of the appropriate enzyme. TEXT PRINTED IN THE PICTURE: 1: Relative Emission 480 nm: 100% (Before incubation); Relative Emission 480 nm: 100% (After 24 h incubation) | 2a: Relative Emission 480 nm: 0% (Before incubation); Relative Emission 480 nm: 0% (After 24 h incubation) | 2b: Relative Emission 480 nm: 0% (Before incubation); Relative Emission 480 nm: 1% (After 24 h incubation) | 3a: Relative Emission 480 nm: 1% (Before incubation); Relative Emission 480 nm: 33% (After 24 h incubation) | 3b*: Relative Emission 480 nm: 1% (Before incubation); Relative Emission 480 nm: 11% (After 24 h incubation) […]
Figure S25: Fluorescence spectra for excitation (blue) and emission (green) of 1 at a concentration of 20 μM in water.
Figure S26: Fluorescence spectra for excitation (blue) and emission (green) of 2a at a concentration of 20 μM in water before (left) and after (right) incubation with 3 units of b-galactosidase for 24 h. […]
Figure S28: Fluorescence spectra for excitation (blue) and emission (green) of 3a at a concentration of 20 μM in water before (left) and after (right) incubation with 3 units of β-galactosidase for 24 h. […]

β-glucosidase = experiment: AIE fluorescence study of release of 1 with β-glucosidase; format: biochemical, almonds; conditions: for Relative emission intensity at 480 nm (for 3b at 420 nm): 20 μM in water; for Fluorescence emission / release of 1 (in words): water, three enzyme units of β-glucosidase, 0 h and 24 h
Experimental: as §5
Fig. 4 Relative emission intensity at 480 nm (*for 3b at 420 nm) of evaluated compounds at 20 μM before and after incubation with 3 U of the appropriate enzyme. TEXT PRINTED IN THE PICTURE: 1: Relative Emission 480 nm: 100% (Before incubation); Relative Emission 480 nm: 100% (After 24 h incubation) | 2a: Relative Emission 480 nm: 0% (Before incubation); Relative Emission 480 nm: 0% (After 24 h incubation) | 2b: Relative Emission 480 nm: 0% (Before incubation); Relative Emission 480 nm: 1% (After 24 h incubation) | 3a: Relative Emission 480 nm: 1% (Before incubation); Relative Emission 480 nm: 33% (After 24 h incubation) | 3b*: Relative Emission 480 nm: 1% (Before incubation); Relative Emission 480 nm: 11% (After 24 h incubation)
Figure S25: Fluorescence spectra for excitation (blue) and emission (green) of 1 at a concentration of 20 μM in water. […]
Figure S27: Fluorescence spectra for excitation (blue) and emission (green) of 2b at a concentration of 20 μM in water
before (left) and after (right) incubation with 3 units of b-glucosidase for 24 h. […]
Figure S29: Fluorescence spectra for excitation (blue) and emission (green) of 3b at a concentration of 20 μM in water
before (left) and after (right) incubation with 3 units of β-glucosidase for 24 h. […]

[4] = after 24 h incubation with 3 U β-galactosidase
[5] = before incubation with 3 U β-galactosidase
[6] = after 24 h incubation with 3 U β-glucosidase
[7] = before incubation with 3 U β-glucosidase

T1 sequence (P00722 2-1024): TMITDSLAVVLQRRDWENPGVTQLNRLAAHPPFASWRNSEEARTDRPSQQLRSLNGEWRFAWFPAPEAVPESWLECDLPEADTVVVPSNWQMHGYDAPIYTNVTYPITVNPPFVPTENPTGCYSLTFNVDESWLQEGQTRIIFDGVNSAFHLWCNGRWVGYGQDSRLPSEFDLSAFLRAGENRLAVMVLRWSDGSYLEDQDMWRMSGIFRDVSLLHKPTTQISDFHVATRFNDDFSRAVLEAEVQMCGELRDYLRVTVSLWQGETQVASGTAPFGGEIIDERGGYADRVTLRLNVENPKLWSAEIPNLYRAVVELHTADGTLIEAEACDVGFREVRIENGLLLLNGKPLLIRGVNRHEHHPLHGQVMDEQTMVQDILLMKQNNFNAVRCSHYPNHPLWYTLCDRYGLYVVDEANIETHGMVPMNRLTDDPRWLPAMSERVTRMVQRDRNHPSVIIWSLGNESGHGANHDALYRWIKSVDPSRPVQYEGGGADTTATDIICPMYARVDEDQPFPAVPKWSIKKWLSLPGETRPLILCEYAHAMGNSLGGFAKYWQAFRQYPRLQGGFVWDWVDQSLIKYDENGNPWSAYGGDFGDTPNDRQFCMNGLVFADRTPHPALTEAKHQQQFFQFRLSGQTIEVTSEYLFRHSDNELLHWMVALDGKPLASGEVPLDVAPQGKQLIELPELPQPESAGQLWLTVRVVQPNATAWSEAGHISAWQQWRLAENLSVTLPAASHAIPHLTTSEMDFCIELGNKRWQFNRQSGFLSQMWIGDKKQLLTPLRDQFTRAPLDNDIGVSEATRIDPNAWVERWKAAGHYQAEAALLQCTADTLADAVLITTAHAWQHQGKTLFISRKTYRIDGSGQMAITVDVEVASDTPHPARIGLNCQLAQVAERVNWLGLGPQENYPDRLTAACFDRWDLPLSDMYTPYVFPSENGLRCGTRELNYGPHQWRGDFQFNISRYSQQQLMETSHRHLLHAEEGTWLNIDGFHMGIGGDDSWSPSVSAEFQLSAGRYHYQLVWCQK

Relative emission intensity at 480 nm (for 3b at 420 nm) (β-glucosidase; [6]) | Relative emission intensity at 480 nm (for 3b at 420 nm) (β-glucosidase; [7]) | Fluorescence emission / release of 1 (in words) (β-glucosidase) | SMILES | Release of 1 (HPLC) (β-galactosidase [1]; 24 h) | Release of 1 (HPLC) (β-galactosidase [1]; 48 h) | Stability in PBS / aqueous media [2] | Relative emission intensity at 480 nm (β-galactosidase [3]; [4]) | Relative emission intensity at 480 nm (β-galactosidase [3]; [5]) | Fluorescence emission / release of 1 (in words) (β-galactosidase [3])
 |  |  | OC[C@H]1OC(Oc2ccccc2-c2nc(-c3ccccc3O)nn2-c2ccccc2)[C@H](O)[C@@H](O)[C@H]1O (stereo partly drawn) [2a] | no release of 1 was observed | no release of 1 was observed | good stability in aqueous media | 0% | 0% | no fluorescence emission was observed
11% | 1% | less pronounced emission | OC[C@H]1OC(Oc2ccc(COc3ccccc3-c3nc(-c4ccccc4O)nn3-c3ccccc3)cc2)[C@H](O)[C@@H](O)[C@@H]1O (stereo partly drawn) [3b] |  |  |  |  |  | 
1% | 0% | no fluorescence emission was observed | OC[C@H]1OC(Oc2ccccc2-c2nc(-c3ccccc3O)nn2-c2ccccc2)[C@H](O)[C@@H](O)[C@@H]1O (stereo partly drawn) [2b] |  |  | good stability in aqueous media |  |  | 
 |  |  | OC[C@H]1OC(Oc2ccc(COc3ccccc3-c3nc(-c4ccccc4O)nn3-c3ccccc3)cc2)[C@H](O)[C@@H](O)[C@H]1O (stereo partly drawn) [3a] | significant release of 1 | further increased |  | 33% | 1% | readily discernible release of 1
